Test results reported in patent US12024543B2, “Micropeptides and use of same for modulating gene expression” (UNIVERSITE PAUL SABATIER TOULOUSE III, priority 2013, dated 2024).

Columns and labels:
HsmiR155 = experiment: HeLa cells transfected to overexpress HsmiPEP155, relative expression of Pre-miR155; type: cell-based, Homo sapiens; conditions: HeLa cells overexpressing HsmiPEP155
Excerpt: The DNA fragments of interest (HsmiPEP155 and the mutated miPEP) were synthesized or amplified by PCR using specific primers, and then cloned using the enzymes XhoI and NotI into a pUAS plasmid permitting their overexpression by means of the GAL4 transcription factor, the expression of which is controlled by a constitutive strong promoter.
The different constructs were produced either by PCR amplification on genomic DNA of HeLa cells, or by RT-PCR on total RNAs of L428 human cells. The amplified PCR fragments are digested with the HindIII/EcoRI restriction enzymes and then cloned into the vector pcDNA3.1. The DH5a strain of Escherichia coli is electroporated and then cultured on a solid medium (2YT+agar+ampicillin). The plasmid DNA from different clones is then prepared and sequenced for verification. The constructs are then prepared using the QIAfilter Plasmid Midi kit (QIAGEN) and stored at −20° C.
The HeLa cells (established tumour line, ATCC CCL-2.2) are cultured in a 6-well plate in complete medium [(DMEM (1×)+Glutamax+4.5 g/L glucose without pyruvate+1× penicillin/streptomycin+1 mM Na-pyruvate+10% calf serum] and placed in an incubator at 37° C. and 5% CO2.
The cells are transfected when they are at 50% confluence. […]
10-15 μg of total RNAs is then analysed by Northern blot on 15% acrylamide gel [solution of acrylamide/40% bis-acrylamide, ratio 19:1], 7M urea in TBE 1×. […]

Arabidopsis thaliana [1] = experiment: Growth of Arabidopsis thaliana plants watered with synthetic miPEP; type: in vivo; conditions: A. thaliana; watered with 0.1 μM synthetic peptide, 3 weeks of growth, vs water
Description: The photographs show two plants (top views and side views) after 3 weeks of growth: a control plant watered with water (A), and a plant watered with a composition of 0.1 μM of synthetic peptide corresponding to AtmiPEP164a (B).
The photographs show two plants (top views and side views) after 3 weeks of growth: a control plant watered with water (A), and a plant watered with a composition of 0.1 μM of synthetic peptide corresponding to AtmiPEP319a1 (B).

AtmiR319a = experiment: Overexpression of AtmiPEP319a1 in A. thaliana, qRT-PCR of AtmiR319a; type: in vivo, Arabidopsis thaliana; conditions: overexpression of AtmiPEP319a1 vs control plant
AtmiR165a [2] = experiment: Northern blot of miR165a in A. thaliana roots treated with synthetic AtmiPEP165a; type: in vivo, Arabidopsis thaliana; conditions: 0.1 μM synthetic miPEP165a in water vs water
Arabidopsis thaliana [3] = experiment: Root growth of Arabidopsis thaliana treated with AtmiPEP165a; type: in vivo; conditions: Arabidopsis thaliana treated with AtmiPEP165a vs control plant of the same age
AtmiR165a [4] = experiment: Relative expression of AtmiR165a and its target genes in A. thaliana roots treated with AtmiPEP165a; type: in vivo, Arabidopsis thaliana; conditions: AtmiPEP165a 0.01, 0.1, 1 or 10 μM vs water
AtmiR165a [5] = experiment: Expression of AtmiPEP165a (AtmiORF165a) in tobacco expressing AtmiR165a; type: in vivo, Nicotiana benthamiana; conditions: overexpression of AtmiORF165a
Description: At present, AtmiPEP165a and AtmiPEP319a2, identified in Arabidopsis thaliana, have already been characterized.
The total RNA was extracted from roots of M. truncatula or from tobacco leaves using the extraction kit RNeasy Plant Mini Kit (Qiagen). The reverse transcription was performed using the reverse transcriptase SuperScript II (Invitrogen) starting from 500 ng of total RNA. Three repetitions (n=3) were carried out, each with two technical repetitions. Each experiment was repeated from two to three times. The amplifications by qPCR were carried out using a LightCycler 480 System thermocycler (Roche Diagnostics) by the method described in Lauressergues et al. (Plant J., 72(3): 512-22, 2012).
For the miPEPs 165a and 319a, the corresponding miORFs were cloned into pBIN19 by the method described in Combier et al. (Genes & Dev, 22: 1549-1559, 2008).
The composite plants having roots transformed with Agrobacterium rhizogenes were obtained by the method described in Boisson-Dernier et al. (Mol Plant-Microbe Interact, 18: 1269-1276, 2005). The transformed roots were verified and selected by observations of DsRED with a binocular fluorescence magnifier. The control roots correspond to roots transformed with A. rhizogenes not containing the pPEX-DsRED vector. Transformation of the tobacco leaves was carried out by the method described in Combier et al. (Genes & Dev, 22: 1549-1559, 2008).

“MEMALMVAQTRKGKSVV (listed as Homo sapiens) [HsmiPEP155]” was tested. Which “expression of HsmiR155 (relative expression of Pre-miR155)” value (HsmiR155) did it give?
The value was “increases”.

“MNIHTYHHLLFPSLVFHQSSDVPNALSLHIHTYEYIIVVIDPFRITLAFR (listed as Arabidopsis thaliana) [AtmiPEP319a1]” was tested. Which plant growth (Arabidopsis thaliana [1]) did it give?
Its plant growth is “increases plant growth significantly”.

What about the “accumulation of AtmiR319a” value (AtmiR319a) of the same sequence?
Its value is “increase”.

With “MRVKLFQLRGMLSGSRIL (listed as Arabidopsis thaliana) [AtmiPEP165a]” as the sequence, how does the “accumulation of miR165a (Northern blot)” value (AtmiR165a [2]) read?
The value was “increase”.

What about the root growth phenotype (Arabidopsis thaliana [3]) of the same sequence?
Its root growth phenotype is “greatly accelerated root growth”.

What about the “accumulation of AtmiR165a” value (AtmiR165a [4]) of the same sequence?
Its value is “dose-dependent effect”.

What about the “regulation of the target genes of miR165a (PHV, PHB and REV)” value (AtmiR165a [4]) of the same sequence?
Its value is “negative regulation”.

What about the “accumulation of AtmiR165a” value (AtmiR165a [5]) of the same sequence?
The value was “increase”.
